Laboratory results from patent publication US12257290B2, “PIC1 inhibition of myeloperoxidase oxidative activity in an animal model” (priority 2018, dated 2025).
Ends that are not written are not given here.

What was measured:
[1] = system: classical complement pathway; details: administered intravascularly into rats; by 30 seconds; cited from earlier work
[2] = 'Two-hit' TRALI model: LPS then 30% mismatched human RBC transfusion; assay type: in vivo, Wistar rats
Description: In this Example, Wistar rats were primed with lipopolysaccharide followed by 30% transfusion of mismatched erythrocytes, against which the rats have preexisting antibodies. Sham and vehicle animals were used as controls with a subgroup of animals receiving PIC1 two minutes before transfusion. At 4 hours, blood was isolated for complete blood count. Isolated lung tissue was stained with hematoxylin and eosin and myeloperoxidase (MPO) activity in lung tissue was quantified in a functional assay. Free DNA in plasma was detected by PicoGreen staining.
Lung tissue stained with H&E was analyzed by a clinician blinded to the experimental groups (vehicle only and PIC1-treated animals). Neutrophil infiltration and cell wall thickening were scored on a scale of 0-4: 0=normal lungs, 1=minor lung involvement, 2=moderate lung involvement, 3=serious lung involvement, 4=severe lung involvement.
A myeloperoxidase (MPO) activity assay was conducted as follows. Frozen lung tissue was diced and homogenized on ice in 50 mM potassium phosphate, and centrifuged at 10,000 RPM at 4° C. for 15 minutes after which the supernatant was discarded. To solubilize MPO from the neutrophils in lung tissue, the pellet was resuspended in […] 50 mM hexadecyltrimethylammonium bromide (HTAB), homogenized by sonication and snap frozen in liquid nitrogen. This process was repeated twice and samples were then centrifuged at 10,000 RPM at 4° C. for 10 minutes and supernatant collected.
Peroxidase activity in these samples was measured using 10-actyl-3,7-dihydroxyphenoxazine (ADHP, Amplex Red) following MPO antibody capture from samples as previously described. Fluorescence was read from […] in […] which provided twenty-five data points per well at an excitation wavelength of 535 nm and emission wavelength of 590 nm using a BioTek microplate reader. Purified MPO was used as a positive control and phosphate buffered saline (PBS) as a negative control. All activity assays were performed in triplicate.
Free DNA was measured by PicoGreen in rat plasma as previously described. Briefly, plasma samples were diluted 1:10 in 10 mM Tris-HCl, 1 mM EDTA, pH 8.0 (TE) buffer and 50 uL of each sample was added to the wells along with 50 uL of a 1:200 dilution of PicoGreen (Life Technologies) and incubated at room temperature for 10 minutes, protected from light. A DNA standard curve was prepared in TE Buffer. The fluorescence was then read at an excitation wavelength of 485 nm and an emission wavelength of 520 nm using a BioTek microplate reader. All free DNA measurements were done in triplicate.
For the ‘two-hit’ model, rats were sedated as above and lipopolysaccharide (LPS, from Salmonella enterica serotype enteritidis, 2 mg/kg [Millipore-Sigma]) was administered intravascularly through the indwelling jugular catheter as the ‘first-hit’ similar to other TRALI models (reviewed in references). This was followed 30 minutes later by 30% mismatched RBC transfusion as the ‘second-hit’. Blood samples were collected prior to LPS administration and at 4 hours after RBC transfusion for analysis of blood chemistries (SuperChem and CBC, Antech Diagnostics). Upon completion of the final blood draw, the animals were euthanized using isofluorane and guillotine. A necropsy was completed to collect organs for histopathology. Lungs acquired from each animal were weighed and then stored in formalin or frozen at −70° C. Hematoxylin and eosin (H&E) stained sections of formalin fixed tissue were reviewed in a blinded fashion.
To determine if prophylactic administration of PIC1 would attenuate TRALI pathogenesis, this transfusion-based antibody-initiated complement-mediated TRALI model was utilized. Twenty-eight minutes after IV LPS infusion, 160 mg/kg PIC1 or vehicle control was administered IV followed by the 30% mismatched RBC transfusion. […]

IALILEPICCQERAA-dPEG24 (cysteine pairing not given here) [PA-dPEG24, 15-amino acid PEGylated peptide, 24 PEG moieties at the C-terminus]
systemic inhibition of complement activation [1]: > 90% | lung weight ([2]; 160 mg/kg IV 2 min before transfusion, 4 h after transfusion, vs vehicle p=0.001): significant reduction | lung histology (H&E) ([2]; 160 mg/kg IV prophylactic, 4 h after transfusion): decreased injury to the lung architecture | MPO activity in lung tissue (Amplex Red) ([2]; 5 minutes read, vs vehicle p=0.005): significantly reduced | MPO activity in lung tissue (Amplex Red) ([2]; 10 minutes read, vs vehicle p=0.002): significantly reduced | lung injury score (neutrophil infiltration and cell wall thickening), mean ([2]; scale 0-4, 160 mg/kg IV, vs vehicle p=0.003): 1.5 | free DNA in plasma (PicoGreen) ([2]; vs vehicle p=0.02): significantly reduced | blood levels of white blood cells ([2]; vs vehicle p=0.043): significant increase | blood levels of lymphocytes ([2]; vs vehicle p=0.048): significant increase | circulating neutrophils ([2]; vs vehicle p=0.101): trends towards increased numbers | circulating monocytes ([2]; vs vehicle p=0.229): trends towards increased numbers | blood levels of creatinine, BUN/creatinine and AST ([2]; vs vehicle, data not shown): reduction | kidney weights ([2]; vs vehicle, data not shown): reduced kidney weights
